# Data from patent US6992079B2, “Substituted 11-phenyl-dibenzazepine compounds useful for the treatment or prevention of diseases characterized by abnormal cell proliferation” (President Fellows of Harvard College, priority 1997, dated 2006).
# Read-outs that look alike come from different tables or passages of the source. Marks after values point to notes of the source that are not given here.
# Key:
# [1] = Preliminary toxicology, subcutaneous injection for 14 days; assay type: in vivo, CD-1 female mice; settings: CD-1 female mice; 80 mg/kg/day s.c. 14 days
# Protocol: The toxicological effects of CLT, and compounds 28, 30 and 31 were tested in CD-1 female mice. A dose of 80 mg/kg/day was given to each mouse via subcutaneous injection for a period of 14 days. Preliminary toxicological data was determined by measuring body weight, gross pathology of organs blood chemistry and histology. The vehicle used was DMF 12%+2% Tween 20 88%.
# [2] = test system: DU-145; test: In-Vitro Testing SRB panel: Prostate Cancer; assay type: cell-based; settings: DU-145, 48 h
# [3] = test system: SK-MEL-5; test: In-Vitro Testing SRB panel: Melanoma; assay type: cell-based; settings: SK-MEL-5, 48 h
# [4] = test system: panel of human cancer cells; test: In vitro screening, SRB, panel of 60 human cancer cell lines; assay type: cell-based
# [5] = test system: M14; test: In-Vitro Testing SRB panel: Melanoma; assay type: cell-based; settings: M14, 48 h
# [6] = test system: ROP-62; assay type: cell-based; settings: 48 h
# [7] = test system: A498; test: In-Vitro Testing SRB panel: Renal Cancer; assay type: cell-based; settings: A498, 48 h
# [8] = test system: SK-MEL-2B; test: In-Vitro Testing SRB panel: Melanoma; assay type: cell-based; settings: 48 h
# [9] = test system: MDA-N; test: In-Vitro Testing SRB panel: Breast Cancer; assay type: cell-based; settings: 48 h
# [10] = test system: KM12; test: In-Vitro Testing SRB panel: Colon Cancer; assay type: cell-based; settings: KM12, 48 h
# [11] = test system: RPMI-8226; test: In-Vitro Testing SRB panel: Leukemia; assay type: cell-based; settings: RPMI-8226, 48 h
# [12] = test system: SF-268; test: In-Vitro Testing SRB panel: CNS Cancer; assay type: cell-based; settings: SF-268, 48 h
# [13] = test system: SU.86.86 pancreatic adenocarcinoma; test: Mouse xenograft tumor growth; assay type: in vivo, nude mice; settings: SU.86.86 pancreatic adenocarcinoma mouse xenograft
# [14] = In-Vitro Testing SRB panel: Renal Cancer; assay type: cell-based; settings: 48 h
# [15] = test system: HS 578T; test: In-Vitro Testing SRB panel: Breast Cancer; assay type: cell-based; settings: 48 h
# [16] = test system: ACHN; test: In-Vitro Testing SRB panel: Renal Cancer; assay type: cell-based; settings: 48 h
# [17] = test system: TK-10; test: In-Vitro Testing SRB panel: Renal Cancer; assay type: cell-based; settings: TK-10, 48 h
# [18] = test system: UACC-257; test: In-Vitro Testing SRB panel: Melanoma; assay type: cell-based; settings: UACC-257, 48 h
# [19] = Homo sapiens, read-out: LC50 (the source's name)
smiles,measurement,setting,value
"O=C(c1ccc([N+](=O)[O-])cc1)N1Cc2ccccc2C(c2ccccc2Cl)c2ccccc21 (stereo not shown) [Compound 28, N-(4′-Nitrobenzoyl)-11-(2′-chlorophenyl)-5,6-dihydro-11H-dibenz[b,e]azepine]",Body Weight Change,[1],107%
same,Liver Weight,[1],1.51 ± 0.08^c g
same,RBC,[1],8.1 ± 0.6 10^6/mm^3
same,WBC,[1],7.5 ± 0.8 10^3/mm^3
same,"WBC, RBC, BUN and creatine levels",[1],no differences were found
same,TGI,[2],>1.00E−04 Molar
same,Percent Growth,[2]; log10 conc −4.0 Molar,27%
same,Percent Growth,[2]; log10 conc −5.0 Molar,30%
same,Percent Growth,[2]; log10 conc −6.0 Molar,54%
same,Percent Growth,[2]; log10 conc −7.0 Molar,98%
same,Percent Growth,[2]; log10 conc −8.0 Molar,100%
same,GI50,[2]; Homo sapiens,1.52 µM
same,CC50,[2]; [19],> 100 µM
same,GI50,[3]; Homo sapiens,0.529 µM
same,CC50,[3]; [19],> 100 µM
same,TGI,[3],1.74E−05 Molar
same,Percent Growth,[3]; log10 conc −4.0 Molar,−25%
same,Percent Growth,[3]; log10 conc −5.0 Molar,8%
same,Percent Growth,[3]; log10 conc −6.0 Molar,40%
same,Percent Growth,[3]; log10 conc −7.0 Molar,76%
same,Percent Growth,[3]; log10 conc −8.0 Molar,84%
same,activity against the human cell panel,[4],exhibited activity against the human cell panel
same,GI50,[5]; Homo sapiens,0.941 µM
same,CC50,[5]; [19],> 100 µM
same,TGI,[5],2.19E−05 Molar
same,Percent Growth,[5]; log10 conc −4.0 Molar,−32%
same,Percent Growth,[5]; log10 conc −5.0 Molar,16%
same,Percent Growth,[5]; log10 conc −6.0 Molar,49%
same,Percent Growth,[5]; log10 conc −7.0 Molar,85%
same,Percent Growth,[5]; log10 conc −8.0 Molar,94%
same,GI50,[6]; Homo sapiens,13.1 µM
same,CC50,"[6]; Homo sapiens, ROP-62, read-out: LC50 (the source's name)",> 100 µM
same,TGI,[6]; ROP-62,>1.00E−04 Molar
same,Percent Growth,"[6]; ROP-62, log10 conc −4.0 Molar",38%
same,Percent Growth,"[6]; ROP-62, log10 conc −5.0 Molar",52%
same,Percent Growth,"[6]; ROP-62, log10 conc −6.0 Molar",60%
same,Percent Growth,"[6]; ROP-62, log10 conc −7.0 Molar",89%
same,Percent Growth,"[6]; ROP-62, log10 conc −8.0 Molar",91%
same,TGI,[7],>1.00E−04 Molar
same,Percent Growth,[7]; log10 conc −4.0 Molar,15%
same,Percent Growth,[7]; log10 conc −5.0 Molar,57%
same,Percent Growth,[7]; log10 conc −6.0 Molar,81%
same,Percent Growth,[7]; log10 conc −7.0 Molar,93%
same,Percent Growth,[7]; log10 conc −8.0 Molar,97%
same,GI50,[7]; Homo sapiens,14.4 µM
same,CC50,[7]; [19],> 100 µM
same,GI50,[8]; Homo sapiens,> 100 µM
same,CC50,"[8]; Homo sapiens, SK-MEL-2B, read-out: LC50 (the source's name)",> 100 µM
same,TGI,[8]; SK-MEL-2B,>1.00E−04 Molar
same,Percent Growth,"[8]; SK-MEL-2B, log10 conc −4.0 Molar",50%
same,Percent Growth,"[8]; SK-MEL-2B, log10 conc −5.0 Molar",56%
same,Percent Growth,"[8]; SK-MEL-2B, log10 conc −6.0 Molar",72%
same,Percent Growth,"[8]; SK-MEL-2B, log10 conc −7.0 Molar",97%
same,Percent Growth,"[8]; SK-MEL-2B, log10 conc −8.0 Molar",39%
same,TGI,[9],>1.00E−04 Molar
same,GI50,[9]; Homo sapiens,1.17 µM
same,CC50,[9]; [19],> 100 µM
same,Percent Growth,[9]; log10 conc −4.0 Molar,7%
same,Percent Growth,[9]; log10 conc −5.0 Molar,23%
same,Percent Growth,[9]; log10 conc −6.0 Molar,52%
same,Percent Growth,[9]; log10 conc −7.0 Molar,94%
same,Percent Growth,[9]; log10 conc −8.0 Molar,99%
same,GI50,[10]; Homo sapiens,0.765 µM
same,CC50,[10]; [19],> 100 µM
same,TGI,[10],>1.00E−04 Molar
same,Percent Growth,[10]; log10 conc −4.0 Molar,15%
same,Percent Growth,[10]; log10 conc −5.0 Molar,26%
same,Percent Growth,[10]; log10 conc −6.0 Molar,45%
same,Percent Growth,[10]; log10 conc −7.0 Molar,84%
same,Percent Growth,[10]; log10 conc −8.0 Molar,94%
same,GI50,[11]; Homo sapiens,0.522 µM
same,CC50,[11]; [19],> 100 µM
same,TGI,[11],>1.00E−04 Molar
same,Percent Growth,[11]; log10 conc −4.0 Molar,12%
same,Percent Growth,[11]; log10 conc −5.0 Molar,36%
same,Percent Growth,[11]; log10 conc −6.0 Molar,46%
same,Percent Growth,[11]; log10 conc −7.0 Molar,61%
same,Percent Growth,[11]; log10 conc −8.0 Molar,74%
same,GI50,[12]; Homo sapiens,1.66 µM
same,CC50,[12]; [19],> 100 µM
same,TGI,[12],>1.00E−04 Molar
same,Percent Growth,[12]; log10 conc −4.0 Molar,19%
same,Percent Growth,[12]; log10 conc −5.0 Molar,34%
same,Percent Growth,[12]; log10 conc −6.0 Molar,55%
same,Percent Growth,[12]; log10 conc −7.0 Molar,81%
same,Percent Growth,[12]; log10 conc −8.0 Molar,94%
same,tumor growth,[13],significantly inhibited tumor growth
same,TGI,[14]; DO-31,>1.00E−04 Molar
same,Percent Growth,"[14]; DO-31, log10 conc −4.0 Molar",14%
same,Percent Growth,"[14]; DO-31, log10 conc −5.0 Molar",28%
same,Percent Growth,"[14]; DO-31, log10 conc −6.0 Molar",56%
same,Percent Growth,"[14]; DO-31, log10 conc −7.0 Molar",111%
same,Percent Growth,"[14]; DO-31, log10 conc −8.0 Molar",105%
same,GI50,[14]; Homo sapiens,1.69 µM
same,CC50,"[14]; Homo sapiens, DO-31, read-out: LC50 (the source's name)",> 100 µM
same,TGI,[15]; HS 578T,>1.00E−04 Molar
same,Percent Growth,"[15]; HS 578T, log10 conc −4.0 Molar",42%
same,Percent Growth,"[15]; HS 578T, log10 conc −5.0 Molar",121%
same,Percent Growth,"[15]; HS 578T, log10 conc −6.0 Molar",125%
same,Percent Growth,"[15]; HS 578T, log10 conc −7.0 Molar",187%
same,Percent Growth,"[15]; HS 578T, log10 conc −8.0 Molar",193%
same,GI50,"[15]; Homo sapiens, Hs-578T",80.2 µM
same,CC50,"[15]; Homo sapiens, HS 578T, read-out: LC50 (the source's name)",> 100 µM
same,TGI,[16],>1.00E−04 Molar
same,GI50,[16]; Homo sapiens,1.37 µM
same,CC50,[16]; [19],> 100 µM
same,Percent Growth,[16]; log10 conc −4.0 Molar,19%
same,Percent Growth,[16]; log10 conc −5.0 Molar,30%
same,Percent Growth,[16]; log10 conc −6.0 Molar,53%
same,Percent Growth,[16]; log10 conc −7.0 Molar,92%
same,Percent Growth,[16]; log10 conc −8.0 Molar,102%
same,GI50,[17]; Homo sapiens,51.3 µM
same,CC50,[17]; [19],> 100 µM
same,TGI,[17],>1.00E−04 Molar
same,Percent Growth,[17]; log10 conc −4.0 Molar,48%
same,Percent Growth,[17]; log10 conc −5.0 Molar,54%
same,Percent Growth,[17]; log10 conc −6.0 Molar,76%
same,Percent Growth,[17]; log10 conc −7.0 Molar,93%
same,Percent Growth,[17]; log10 conc −8.0 Molar,102%
same,GI50,[18]; Homo sapiens,0.441 µM
same,CC50,[18]; [19],> 100 µM
same,TGI,[18],>1.00E−04 Molar
same,Percent Growth,[18]; log10 conc −4.0 Molar,6%
same,Percent Growth,[18]; log10 conc −5.0 Molar,9%
same,Percent Growth,[18]; log10 conc −6.0 Molar,35%
same,Percent Growth,[18]; log10 conc −7.0 Molar,78%
same,Percent Growth,[18]; log10 conc −8.0 Molar,81%
